Reference: ChEMBL document CHEMBL3853274, “Ibogan, Aspidosperman, Vincamine, and Bisindole Alkaloids from a Malayan Tabernaemontana corymbosa: Iboga Alkaloids with C-20α Substitution” (J Nat Prod, 2016)

Legend:
Assay type in all cases: functional, cell-based
[1] = Cytotoxicity against vincristine-resistant human KB/VJ300 cells after 72 hrs by MTT assay; conditions: KB/VJ300, 72 h
[2] = Cytotoxicity against vincristine-sensitive human KB cells after 72 hrs by MTT assay
[3] = Cytotoxicity against vincristine-resistant human KB/VJ300 cells in presence of 0.12 uM vincristine after 72 hrs by MTT assay; conditions: KB/VJ300, 72 h

Row | Compound | IC50 [1] [nM] | IC50 [2] [µM] | IC50 [3] [nM]
1 | C/C=C1/CN(C)[C@H]2Cc3c([nH]c4ccccc34)[C@@H](c3ccc4c5c([nH]c4c3)[C@@H]3C[C@H]4C[C@H](CC)[C@@H]3N(CC5)C4)C[C@@H]1[C@@H]2C(=O)OC | 1400 | 1.2 | 900
2 | C/C=C1/CN(C)[C@H]2Cc3c([nH]c4ccccc34)[C@@H](c3ccc4c5c([nH]c4c3)[C@@H]3C[C@H]4C[C@H]([C@@H](C)O)[C@@H]3N(CC5)C4)C[C@@H]1[C@@H]2C(=O)OC | 2700 | 3.3 | 1300
3 | C/C=C1/CN(C)[C@H]2Cc3c([nH]c4ccccc34)[C@@H](c3ccc4c5c([nH]c4c3)[C@@H]3C[C@H]4C[C@H]([C@H](C)O)[C@@H]3N(CC5)C4)C[C@@H]1[C@@H]2C(=O)OC | 4100 | 4.6 | 1800
